Data published in PMC11603412, “Anti-hepatocellular carcinoma activities of novel hydrazone derivatives via downregulation of interleukin-6” (RSC Advances, 2024).
“Also recorded” adds a separate entry of the source.

Columns and labels:
HepG2 cell line = assay: MTT cytotoxicity assay, HepG2; type: cell-based, human; conditions: for IC50: Homo sapiens, HepG2, 24 h; for cytotoxic action against HepG2: MTT assay, in words
Protocol: (§1) The HepG2 cell line was obtained from ATCC (Rockville, MD). Liver mesenchymal stem cells were harvested from liver biopsy according to previously published protocols.[34] Cells were grown in DMEM media with 10% fetal bovine serum (FBS), 100 U per mL penicillin, and […] streptomycin at 37 °C, 5% CO2. The MTT assay kit, which relies on succinate dehydrogenase in living cells' mitochondria to convert the 3-(4,5-dimethylthiazol-2-yl)-2,5-diphenyltetrazolium bromide (MTT) dye to violet formazan crystals, was used to calculate the vitality of individual cells. 6000 cells per well were seeded in the 96-well plate containing, which were then incubated for 24 h. Different concentrations of drug were dissolved in DMEM and then added to the wells to replace the culture medium. The medium was discarded after incubation for 24 h under the same conditions, and 100 μL of MTT (2 mg mL^−1) were added. After 3 h of incubation at 37 °C, the generated formazan crystals generated were dissolved in 50 μL of DMSO. The optical density was then measured using a Stat Fax ELISA plate reader (Romer Labs, Getzersdorf, Austria) at 570 nm with a reference wavelength of 630 nm after incubating the plate at 37 °C for 15 min. As a positive control, the tyrosine kinase inhibitor sorafenib (Bayer, Germany) was employed. DMSO was used as a solvent and its final concentration was less than 0.2%. SI and IC50 were calculated. Triplicates of each in vitro test were performed.[33]

[1] = test system: Liver mesenchymal stem cells; assay: MTT cytotoxicity assay, liver mesenchymal stem cells (normal cell line); type: cell-based; conditions: 24 h
Protocol: as §1

HepG2 cells [2] = assay: Wound healing (cell migration) assay; type: cell-based, human; conditions: for cell migration of HepG2 cells: 24 h, versus untreated control; for antimigration effect compared to sorafenib: HepG2, 24 h, quantified relative migration
Protocol: The wound healing assay was used to investigate the anti-cell migration/antiproliferation effects of synthesized hydrazone derivatives on the HepG2 cell line. In DMEM medium supplemented with 10% fetal bovine serum (FBS), 100 U per mL penicillin, and […] streptomycin, cells were cultured at 37 °C and 5% CO2. After reaching 80% density, the monolayer cells were scratched using a sterile tip and then washed with phosphate buffered saline, pH 7.4. Different hydrazone derivatives were applied to cells, which were then incubated for 24 h at 37 °C and 5% CO2. Finally, an Olympus microscope (Olympus Europa, Hamburg, Germany) was used to take pictures of the wound areas at 0 and 24 h. The relative cell migration was calculated using the following equation:Relative migration = (width0h − width24h)/width0h

HepG2 cells [3] = assay: Active caspase 3 apoptosis flow cytometry; type: cell-based, human; conditions: for percentage of apoptotic cells compared to the control group: HepG2, active caspase 3, in words; for percentage of apoptotic cells: HepG2, active caspase 3, text value
Protocol: (§2) Cells were harvested, aliquoted up to 1 × 10^6 cells/100 μL in FACS tubes, washed twice with 2 mL of PBS, centrifuged at 300 × g for five minutes, and the buffer was decanted. Reconstituted cells in 100 μL of staining buffer for flow cytometry. HepG2 cells were stained with propidium iodide according to the technique offered via the kit and subsequently performed on the cytometer. The distribution of the cell cycles was estimated and analyzed using a FACScan TM device (BD, Franklin Lakes, NJ). Furthermore, the caspase-3 apoptotic marker levels were investigated by flow cytometry. During the flow cytometry assay, we investigated a population of HepG2 cells to obtain enough cells for statistically significant detection.
FITC active caspase-3 apoptosis kit (BD Biosciences, Franklin Lakes, NJ, USA) was used for detection of active caspase 3 followed by flow cytometry analysis according to the instructions of the kit manufacturer.

HepG2 cells [4] = assay: Propidium iodide cell cycle flow cytometry; type: cell-based, human
Protocol: as §2

IL-6 = IL-6 gene expression (RT-PCR); type: cell-based; conditions: normalised to β-actin, versus control group
Protocol: After two rounds of PBS washing, total RNA was extracted using the TRIzol Reagent, and cDNA synthesis was performed using the high-capacity cDNA reverse transcription kit in accordance with the manufacturer's instructions. The qPCR reaction mixture contained so-fast EvaGreen supermix (10 μL), cDNA (2 μL), invitrogen RT-PCR grade water (6 μL), and the primer pair (500 nM; forward primer 5′-CAAATTCGGTACATCCTC-3′, reverse primer 5′-CTGGCTTGTTCCTCACTA-3′). The amplification started with heating 10 min at 95 °C, followed by 40 cycles of 15 s at 95 °C, 20 s at 55 °C and 30 s at 72 °C. The amplification data was then analyzed as previously described previously with normalization to β-actin.[35]

Cytochrome C = Cytochrome C sandwich ELISA; type: cell-based; conditions: versus control group
Protocol: Cytochrome C was quantified using a sandwich ELISA kit (Abcam, Cambridge, UK) according to the manufacturer's procedures. After the addition of the TMB substrate and the development of the color, the optical density was measured using a Stat fax microplate reader, USA, at 450 nm.

| SMILES | IC50 (HepG2 cell line) [µM] | cytotoxic action against HepG2 (HepG2 cell line) | IC50 [1] [µM] | cell migration of HepG2 cells (HepG2 cells [2]) | percentage of apoptotic cells compared to the control group (HepG2 cells [3]) | antimigration effect compared to sorafenib (HepG2 cells [2]) | percentage of apoptotic cells (HepG2 cells [3]) [%] | cells in G2/M phase (HepG2 cells [4]) [%] | cells in S-phase (HepG2 cells [4]) [%] | IL-6 mRNA expression (IL-6) | cytochrome C concentration (Cytochrome C) | cells in the G0/G1 phase (HepG2 cells [4]) [%] |
| --- | --- | --- | --- | --- | --- | --- | --- | --- | --- | --- | --- | --- |
| NN=C(C1CC1)C1CC1 [Compound 2, dicyclopropylmethylene hydrazone] | 94.7 | excellent cytotoxic action | > 100 | substantially reduced | increased significantly |  |  |  |  |  |  |  |
| COc1ccc(/C=N\N=C(C2CC2)C2CC2)cc1 [Compound 3a] | 48.2 |  | > 100 |  |  |  |  |  |  |  |  |  |
| O=[N+]([O-])c1ccc(/C=N\N=C(C2CC2)C2CC2)cc1 [Compound 3b] | > 100 |  | 90.2 |  |  |  |  |  |  |  |  |  |
| O=C1Nc2ccccc2/C1=N/N=C(C1CC1)C1CC1 [Compound 4, 3-(dicyclopropylmethylene)hydrazone indolin-2-one] | 53.7 | excellent cytotoxic action | 100 | substantially reduced | increased significantly |  |  |  |  |  |  |  |
| Oc1ccccc1/C=N/N=C/c1ccccc1O [Compound 5] | 75.8 |  | > 100 |  |  |  |  |  |  |  |  |  |
| NC1=NNC2(C(=O)Nc3ccccc32)N1N=C(C1CC1)C1CC1 (centres unmarked) [Compound 7a] | > 100 |  | > 100 |  |  |  |  |  |  |  |  |  |
| O=C1Nc2ccccc2C12NN=C(c1ccccc1)N2N=C(C1CC1)C1CC1 (centres unmarked) [Compound 7b] | > 100 |  | 100 |  |  |  |  |  |  |  |  |  |
| NC1=NNC(c2ccccc2O)N1/N=C\c1ccccc1O (centres unmarked) [Compound 8a] | 62.2 | excellent cytotoxic action | 100 | substantially reduced | increased significantly |  |  |  |  |  |  |  |
| Oc1ccccc1/C=N\N1C(c2ccccc2)=NNC1c1ccccc1O (centres unmarked) [Compound 8b] | > 100 |  | 75.5 |  |  |  |  |  |  |  |  |  |
| Cc1nc2ccccc2c(=O)n1N=C(C1CC1)C1CC1 [Compound 11, 3-((dicyclopropylmethylene)amino)-2-methylquinazolin-4(3H)-one] | > 100 |  | > 100 |  |  |  |  |  |  |  |  |  |
| O=C1C(=O)c2ccccc2C2=C1NNC(C1CC1)(C1CC1)O2 [Compound 13] | 61.4 | excellent cytotoxic action | 85.2 | substantially reduced | increased significantly | significant antimigration effect |  |  |  |  |  |  |
| O=C1CCC(=O)N1N=C(C1CC1)C1CC1 [Compound 16] | 23.6 | excellent cytotoxic action | 76.5 | substantially reduced | increased significantly | significant antimigration effect | 80 | 1.2 | 4.5 | significant (P < 0.001) decrease | significant increase; also recorded: increase in cytochrome C greater than sorafenib |  |
| NC1=CC(=O)NNC1(C1CC1)C1CC1 [Compound 18] | 89.5 | excellent cytotoxic action | 100 | substantially reduced | increased significantly |  |  |  |  |  |  |  |
| Cc1nc2ccccc2c(=O)n1NC(=S)N=C(C1CC1)C1CC1 [Compound 20] | 48.6 | excellent cytotoxic action | 61.5 | substantially reduced | increased significantly | significant antimigration effect |  |  |  |  |  |  |
| CNC(=O)c1cc(Oc2ccc(NC(=O)Nc3ccc(Cl)c(C(F)(F)F)c3)cc2)ccn1 [Sorafenib, reference compound] | 25.6 | excellent cytotoxic action | 100 | substantially reduced | increased significantly |  | 75 | 10.68 | 4.17 | significant (P < 0.001) decrease | significant increase | 74.93 |
